The subject of the assay is IL 1-induced release of neutral protease from rabbit articular chondrocytes. The experiment in a line: inhibition of the IL 1-induced release of neutral protease from rabbit articular chondrocytes (azocoll neutral protease assay). It counts as cell-based. To be noted: Oryctolagus cuniculus, Chondrocyte, compound 10 min before purified human IL 1, 24 h, read-out: % Inhibition (I.S.D.). As for the experimental part: The ability of the compounds of the inventions to inhibit interleukin 1 is measured by the ability of the test compounds to inhibit the IL 1-induced release of neutral protease from rabbit articular chondrocytes.
This assay is carried out as follows:
Isolation of rabbit chondrocytes:
Male New Zealand White rabbits are anesthetized with 50 mg/kg of ketamine (i.m.) and killed by an intracardiac injection of 3 mls. of Nembutal. The knee joints of both legs are resected and the articular surfaces are exposed. Cartilage slices are obtained using a scalpel and are placed in a tissue culture dish (100 mm diameter) containing 10 mls of Hank's balanced salt solution (HBSS). The chondrocytes within the cartilage slices are then liberated by a series of enzyme digestions. The slices are incubated for 10 min. at 37° C. in 0.05% hyaluronidase (Sigma H-3884), rinsed with HBSS and incubated with 0.2% trypsin (Sigma T-2395) for 10 min. at 37° C. The slices are rinsed again and incubated for 10 mins. at 37° C. with 1.2% collagenase (Sigma C-5138). The slices are then rinsed again with HBSS and resuspended in 10 ml of Ham's F-12 medium containing 10% fetal bovine calf serum (FCS) and 0.2% collagenase and incubated overnight at 37° C. in a 5% CO2 incubator. The next day, the medium containing the digested cartilage fragments and liberated chondrocytes is transferred to a 15 ml centrifuge tube and the cells are collected by centrifugation and washed twice and resuspended in Ham's F-12 medium. The cells are then plated into 24-well tissue culture plates (2×10^5 cells/well) and incubated at 37° C. until confluent (usually 4-6 days).
Stimulation of chondrocytes and drug treatment:
The confluent chondrocytes are rinsed twice with serum-free Ham's F-12 medium and 1 ml is added to each well. Fifty $1 of purified human IL 1(100 Units/ml; Genzyme Corporation, Boston, MA) is then added to stimulate these cells to secrete neutral protease. To measure drug effects, the cells are treated with test compound 10 min. prior to addition of IL 1. The standard screening dose is 10 $M. Twenty-four hours after IL 1 stimulation, supernatant fluids are collected and assayed for neutral protease activity.
The neutral protease activity of chondrocyte supernatant fluids is determined by their ability to degrade an insoluble protease substrate, azocoll (Sigma). Supernatants are treated for 10 min. at room temperature with 350 $M p-aminophenyl-murcuric acetate to activate the latent enzyme. Three hundred $1 of supernatant is then mixed with 500 $1 of a 20 mg/ml suspension of azocoll and incubated at 37° C. for 18-24 hrs. with gentle rocking. The mixtures are centrifuged and the amount of substrate hydrolyzed is determined by measuring the absorbance of the supernatant at 520 nm.
Drug effects are calculated as the % change in enzyme activity (absorbance)by supernatants from drug-treated chondrocytes relative to enzyme activity of supernatants from vehicle-treated chondrocytes as follows: [formula]

Molecules are shown by their SMILES.

As to `Clc1ccc2c(Cl)c3c(nc2c1)CCN(c1ncccn1)C3` [Example 1, 7,10-Dichloro-1,2,3,4-tetrahydro-2-(2-pyrimidinyl)benzo[b][1,6]naphthyridine], the inhibition – broadly, the percentage by which the read-out fell short of the control – at 10 µM was found to be 34 ± 8%.
As for `Clc1ccc2c(Cl)c3c(nc2c1)CCN(c1ccc2ccccc2n1)C3` [Example 3, 7,10-Dichloro-1,2,3,4-tetrahydro-2-(2-quinolinyl)benzo[b][1,6]naphthyridine], the inhibition at 10 µM was not above 20%.
As to `N#Cc1ccc(N2CCc3nc4cc(Cl)ccc4c(Cl)c3C2)nc1` [Example 4, 6-(7,10-Dichloro-3,4-dihydrobenzo[b][1,6]naphthyridin-2(1H)-yl)-3-pyridine-carbonitrile, hemihydrate], the inhibition at 10 µM was found to be 94%. Further, the inhibition at 5 µM (dose 5 μM) came out at 83%.
With `Clc1ccc2c(NNc3ccccc3)c3c(nc2c1)CCN(c1cnccn1)C3` [Example 5, 7-Chloro-1,2,3,4-tetrahydro-10-(2-phenylhydrazino)-2-(2-pyrazinyl)benzo[b][1,6]naphthyridine], the inhibition at 10 µM was 85 ± 5%.

The values are drawn from patent US4751305A, “2-heterocyclobenzo[B][1,6]naphthyridines as inhibitors of interleukin” (American Home Products Corporation, priority 1987, dated 1988).
